Where two headings read alike, the source gives them in different places.
What was measured:
[1] = Pharmacokinetic studies in plasma and brain of mice after i.p. injection; assay type: in vivo, mouse; settings: for Cmax (mean ± SEM) Brain: normalized to free base dose; for Sex-dependent difference: Brain Total exposure (AUC) / Sex-dependent difference: Plasma Total exposure (AUC): standard t-test, F female, M male, NS not statistically different
male mice = experiment: Forced swim test immobility time 24 h after i.p. treatment; assay type: in vivo, mouse; settings: for Minimal effective dose to reduce immobility time in the forced swim test: 24 h after injection; for Shape of dose response curve for forced swim test immobility: tested range up to 100 mg/kg
[2] = target: N-methyl-D-aspartate receptor (NMDAR); settings: cited from earlier work
[3] = i.p. administration to mice, ref [19], cited from earlier work
mice = settings: i.p., cited from earlier work; for Lowest dose reducing forced swim test immobility time: ref [4]
[4] = i.p.; ref [4]; cited from earlier work
rats = settings: 10 mg/kg, i.p., ref [26]; cited from earlier work

SMILES	Cmax (mean ± SEM) Brain ([1]; female CD-1 mice, i.p. 5 mg/kg) [ng/g•mg/kg]	B:P ratio (brain to plasma AUC ratio) ([1]; female mice, i.p. 5 mg/kg)	t1/2 Brain (terminal half-life) ([1]; female mice, i.p. 5 mg/kg) [min]	t1/2 Plasma (terminal half-life) ([1]; female mice, i.p. 5 mg/kg) [min]	Cmax (mean ± SEM) Brain ([1]; male CD-1 mice, i.p. 5 mg/kg) [ng/g•mg/kg]	B:P ratio (brain to plasma AUC ratio) ([1]; male mice, i.p. 5 mg/kg)	t1/2 Brain (terminal half-life) ([1]; male mice, i.p. 5 mg/kg) [min]	t1/2 Plasma (terminal half-life) ([1]; male mice, i.p. 5 mg/kg) [min]	Sex-dependent difference: Brain Total exposure (AUC) [1]	Sex-dependent difference: Plasma Total exposure (AUC) [1]	Minimal effective dose to reduce immobility time in the forced swim test (male mice) [mg/kg]	Shape of dose response curve for forced swim test immobility (male mice)	Lowest dose reducing forced swim test immobility time (mice) [mg/kg]	Lowest dose reducing escape failures in the learned helplessness test [4] [mg/kg]	further results
N[C@@]1(c2ccccc2Cl)CCC[C@@H](O)C1=O [(2R,6R)-HNK, (2R,6R)-hydroxynorketamine]	530 ± 17.2	1.3	34	36	380 ± 19.3	1.3	34	38	F > M	F > M	10	did not demonstrate U-shaped dose responses	5	3	Ki ([2]; read-out: Ki, potency to bind or inhibit NMDARs, ref [4],[19],[31]-[35]): > 100 µM; Time of peak plasma levels ([3]; plasma collected at 2.5 and 5 min post-injection): 2.5 min; Time of peak brain levels [3]: 5 min; Effect on forced swim test immobility time (mice; mice, 10 mg/kg, ref [17]): reduced forced swim test immobility time; Reversal of learned helplessness (rats): reversed learned helplessness
N[C@]1(c2ccccc2Cl)CCC[C@H](O)C1=O [(2S,6S)-HNK, (2S,6S)-hydroxynorketamine]	993 ± 27.1	1.2	44	46	712 ± 47.3	1.0	41	44	F > M	F > M	30	did not demonstrate U-shaped dose responses	25	75	Cmax and AUC, fold greater than those of (2R,6R)-HNK ([1]; male mice, equivalent doses): 2-3 fold; Effect on forced swim test immobility time and measures of anhedonia following chronic stress (mice; mice, 20 mg/kg, ref [23]): reduced forced swim test immobility time and measures of anhedonia
N[C@@]1(c2ccccc2Cl)CCC[C@H](O)C1=O [(2R,6S)-HNK]	166 ± 12.3	0.7	23	47	173 ± 5.4	0.6	43	55	M > F	M > F	1	U-shaped dose response curves	–	–	Brain level at 4 h post-treatment ([1]; females, but not males, i.p. 5 mg/kg, LLOQ 5.0 ng/ml): below LLOQs; Brain Cmax and AUC compared to equivalent dosing with (2R,6R)-HNK ([1]; from Table 1): approximately two-fold lower; Ki ([2]; read-out: NMDAR binding affinity, ref [31]): > 100 µM

From paper PMC9926475 (ACS chemical neuroscience, 2022)
